Measured values: patent EP0380359A1, “Biocidal compositions and treatments” (Albright & Wilson Limited, priority 1989, dated 1990)

Test system: infected cooling water
Experiment: Biocide test: bacterial counts in dosed samples of infected cooling water after 17 hours
Type: cell-based
Conditions: for bacterial counts per ml.: Table 2 (Example 6), control 10⁷
Procedure: Ethyl tris (hydroxymethyl) phosphonium chloride (Ethyl THPC) prepared according to the method of example 4, THPS, and a tetrakis (1 - hydroxy ethyl) phosphonium chloride (comparative example) were each dosed at four different concentrations to separate samples of an infected cooling water.
Bacterial counts per ml. of solution were estimated after 17 hours. The results are set out in Table 1 Table 1
Methyl tris (hydroxy methyl) phosphonium chloride (methyl THPC), THPS, and two other comparative examples, cyclohexyl tris (hydroxy methyl) phosphonium chloride and octyl tris (hydroxy methyl) phosphonium sulphate were each added at concentrations of 50, 200 and 1,000 ppm to separate samples of an infected cooling water.
Allyl tris (hydroxymethyl) phosphonium bromide (allyl THPB) prepared as described in Ex3 was compared with 2, 6-dichlorobenzyl tris (hydroxymethyl) phosphonium bromide and THPS in a biocide test as described in example 5. […]

[1] = Example 5, summary in words of Table 1
[2] = Table 1 (Example 5), 150 ppm, after 17 hours, control 10⁶
[3] = Table 1 (Example 5), 200 ppm, after 17 hours, control 10⁶
[4] = Table 3 (Example 7), 100 ppm, test as in example 5
[5] = Table 3 (Example 7), 150 ppm, test as in example 5
[6] = Table 3 (Example 7), 200 ppm, test as in example 5

Row | SMILES | bactericidal activity [1] | Bacterial counts per ml. of solution [2] | Bacterial counts per ml. of solution [3] | bacterial counts per ml. (200 ppm, after 17 hours) | bacterial counts per ml. (1000 ppm, after 17 hours) | Bacterial counts per ml. of solution [4] | Bacterial counts per ml. of solution [5] | Bacterial counts per ml. of solution [6] | Bacterial counts per ml. of solution (Table 1 (Example 5), 100 ppm, after 17 hours, control 10⁶) | bactericidal activity (Example 7, summary in words of Table 3)
1 | OC[P+](CO)(CO)CO [THPS, reference compound] | effective | 0 per ml | 0 per ml | 0 per ml | 0 per ml | 0 per ml | 0 per ml | 0 per ml | – | –
2 | CC[P+](CO)(CO)CO.[Cl-] [ETHYL THPC, Ethyl tris (hydroxymethyl) phosphonium chloride] | more effective than THPS at lower concentrations | 0 per ml | 0 per ml | – | – | – | – | – | 0 per ml | –
3 | C[P+](CO)(CO)CO.[Cl-] [METHYL THPC, Methyl tris (hydroxy methyl) phosphonium chloride] | – | – | – | 0 per ml | 0 per ml | – | – | – | – | –
4 | C=CC[P+](CO)(CO)CO.[Br-] [ALLYL THPB, Allyl tris (hydroxymethyl) phosphonium bromide] | – | – | – | – | – | 0 per ml | 0 per ml | 0 per ml | – | performs at least as well as THPS
